From ChEMBL document CHEMBL3779789, “Tricyclic pyrazoles. Part 8. Synthesis, biological evaluation and modelling of tricyclic pyrazole carboxamides as potential CB2 receptor ligands with antagonist/inverse agonist properties” (Eur J Med Chem, 2016) come the findings set out here.

The target in experiment [1] is T1, Cannabinoid receptor 1 (Homo sapiens, UniProt P21554). The experiment in a line: Displacement of [3H]CP55940 from human CB1 receptor expressed in HEK293-EBNA cell membrane incubated for 90 mins by liquid scintillation counting method. Type of experiment: cell membranes.
The target of experiment [2] is T2, Cannabinoid receptor 2 (Homo sapiens, UniProt P34972). The experiment can be described thus: Displacement of [3H]CP55940 from human CB2 receptor expressed in HEK293-EBNA cell membrane incubated for 90 mins by liquid scintillation counting method. In kind it is cell membranes. In general terms: Displacement assays read how much labelled ligand stays bound in the presence of the test substance.

Experiment [3] deals with T1, Cannabinoid receptor 1. The experiment in a line: Displacement of [3H]CP55940 from human CB1 receptor expressed in HEK293-EBNA cell membrane at 40 uM incubated for 90 mins by liquid scintillation counting method relative to control. In kind it is cell membranes.
In experiment [4] the target is T2, Cannabinoid receptor 2. The experiment in a line: Displacement of [3H]CP55940 from human CB2 receptor expressed in HEK293-EBNA cell membrane at 40 uM incubated for 90 mins by liquid scintillation counting method relative to control. Type of experiment: cell membranes.
A short description of experiment [5]: Selectivity ratio of Ki for human CB1 receptor expressed in HEK293-EBNA cell membrane to Ki for human CB2 receptor expressed in HEK293-EBNA cell membrane. In kind it is cell-based.
In experiment [6] the target is T2, Cannabinoid receptor 2. The experiment can be described thus: Antagonist/inverse agonist activity at human CB2 receptors expressed in human Chem4 cell membrane incubated for 30 mins by [35S]GTPgammaS binding assay. In kind it is functional, cell membranes. A general note: GTPγS is a poorly hydrolysed GTP analogue; its binding reports G protein activation.
Experiment [7] addresses Cannabinoid receptor 2 (Mus musculus) (UniProt P47936). The experiment in a line: Antagonist/inverse agonist activity at CB2 receptor in mouse BV2 cells assessed as increase in LPS-induced PGE2 production at 10 fold Ki concentration incubated for 16 hrs by ELISA. Conditions: BV-2. In kind it is cell-based.
For experiment [8] the target is unchanged. The experiment in a line: Antagonist/inverse agonist activity at CB2 receptor in mouse BV2 cells assessed as increase in LPS-induced PGE2 production at 10 fold Ki concentration incubated for 16 hrs by ELISA in presence of CB2 antagonist/inverse agonist SR144528. Type of experiment: cell-based. Conditions: BV-2. On the technique in general: ELISA stands for enzyme-linked immunosorbent assay.

The target is the same in experiment [9]. The experiment in a line: Antagonist activity at CB2 receptor in mouse BV2 cells assessed as reversal of WIN55,212-2-induced reduction of LPS-induced PGE2 production at 10 fold Ki concentration incubated for 16 hrs by ELISA. Type of experiment: cell-based. The note with it: BV-2.

Activity calls are given as the source filed them. No cut-off for these calls is given here.

Cannabinoid receptor 2 (Mus musculus), sequence (P47936 whole entry): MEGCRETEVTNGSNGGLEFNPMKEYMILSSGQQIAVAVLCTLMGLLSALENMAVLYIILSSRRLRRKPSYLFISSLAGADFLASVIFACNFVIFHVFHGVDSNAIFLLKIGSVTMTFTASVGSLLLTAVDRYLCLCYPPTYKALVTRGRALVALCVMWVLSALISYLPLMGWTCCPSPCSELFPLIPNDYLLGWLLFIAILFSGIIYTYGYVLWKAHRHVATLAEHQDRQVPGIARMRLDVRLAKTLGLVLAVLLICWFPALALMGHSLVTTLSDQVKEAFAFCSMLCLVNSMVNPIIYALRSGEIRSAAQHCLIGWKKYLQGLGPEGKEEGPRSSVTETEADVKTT
T2 sequence (P34972 whole entry): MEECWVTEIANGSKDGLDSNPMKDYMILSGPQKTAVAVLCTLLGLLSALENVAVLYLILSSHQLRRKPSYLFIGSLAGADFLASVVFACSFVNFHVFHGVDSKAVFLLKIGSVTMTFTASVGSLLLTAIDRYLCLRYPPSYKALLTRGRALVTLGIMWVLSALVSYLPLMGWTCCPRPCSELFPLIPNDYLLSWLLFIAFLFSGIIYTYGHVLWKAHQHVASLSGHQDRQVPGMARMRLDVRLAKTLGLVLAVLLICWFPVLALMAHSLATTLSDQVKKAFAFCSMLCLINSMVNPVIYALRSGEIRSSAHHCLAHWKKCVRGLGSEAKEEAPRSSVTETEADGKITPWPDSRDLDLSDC
T1 sequence (P21554 whole entry): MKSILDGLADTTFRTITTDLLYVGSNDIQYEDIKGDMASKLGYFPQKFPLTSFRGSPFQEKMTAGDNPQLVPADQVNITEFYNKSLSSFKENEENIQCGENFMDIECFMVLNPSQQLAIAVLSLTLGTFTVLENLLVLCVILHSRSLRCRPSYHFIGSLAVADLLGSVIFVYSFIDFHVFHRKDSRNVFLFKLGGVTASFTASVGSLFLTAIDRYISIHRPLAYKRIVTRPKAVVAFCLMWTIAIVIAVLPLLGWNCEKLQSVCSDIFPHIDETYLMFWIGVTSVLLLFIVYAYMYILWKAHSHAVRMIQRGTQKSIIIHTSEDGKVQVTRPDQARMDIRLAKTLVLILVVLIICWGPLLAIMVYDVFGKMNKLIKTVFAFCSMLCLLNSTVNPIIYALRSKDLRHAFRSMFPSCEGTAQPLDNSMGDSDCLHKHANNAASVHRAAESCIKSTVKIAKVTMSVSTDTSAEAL

For `CC1(C)C2CC[C@@](C)(C2)C1NC(=O)c1nn(-c2ccc(Cl)cc2Cl)c2c1Cc1cc(C3CC3)ccc1-2` (stereo partly drawn), the Ki (usually the dissociation constant of the complex between target and ligand, obtained from inhibition or displacement) at Cannabinoid receptor 1 [1] was more than 40000 nM; at Cannabinoid receptor 2 [2], 6 nM. In addition, the Activity on Cannabinoid receptor 1 [3] and at Cannabinoid receptor 2 [4] was more than 70% each time. The Ratio Ki in experiment [5] was more than 6940. The IC50 – broadly, the concentration needed to halve the response being measured – on Cannabinoid receptor 2 [6] was determined as 80.4 nM. The result in experiment [7] and in [9] was Active. For the same compound, the result in experiment [8] was inactive.

With `CC1(C)C2CCC(CNC(=O)c3nn(-c4ccc(Cl)cc4Cl)c4c3CCc3cc(C5CC5)ccc3-4)C1C2` (stereo not drawn), the Ki at Cannabinoid receptor 1 [1] and on Cannabinoid receptor 2 [2] was more than 10000 nM each time. The Activity at Cannabinoid receptor 1 [3] and at Cannabinoid receptor 2 [4] was more than 70% in each case.

For the compound `O=C(NN1CCOCC1)c1nn(-c2ccc(Cl)cc2Cl)c2c1Cc1cc(C3CC3)ccc1-2`, the results for the Ki at Cannabinoid receptor 1 [1] and on Cannabinoid receptor 2 [2] were 4030 nM and 198 nM, respectively. Further, the Activity on Cannabinoid receptor 1 [3] and at Cannabinoid receptor 2 [4] was more than 70% throughout. In [5], the Ratio Ki was 20.4.

For `O=C(NN1CCCCC1)c1nn(-c2ccc(Cl)cc2Cl)c2c1Cc1cc(C3CC3)ccc1-2`, the Ki on Cannabinoid receptor 1 [1] is 1850 nM; on Cannabinoid receptor 2 [2], 69.4 nM. Moreover, the Activity at Cannabinoid receptor 1 [3] and at Cannabinoid receptor 2 [4] was more than 70% each time. The Ratio Ki in experiment [5] was determined as 26.7. The 50% inhibitory concentration (IC50) on Cannabinoid receptor 2 [6] was determined as 294 nM.

Consider `CC1(C)C2CC[C@@](C)(C2)C1NC(=O)c1nn(-c2ccc(Cl)cc2Cl)c2c1Cc1cc(C3CCCCC3)ccc1-2` (stereo partly drawn), for which the Ki on Cannabinoid receptor 1 [1] and on Cannabinoid receptor 2 [2] was more than 10000 nM in each case. Moreover, the Activity on Cannabinoid receptor 1 [3] and on Cannabinoid receptor 2 [4] was more than 70% in each case.

With `O=C(NN1CCCC1)c1nn(-c2ccc(Cl)cc2Cl)c2c1Cc1cc(C3CC3)ccc1-2`, the Ki turned out to be 4210 nM at Cannabinoid receptor 1 [1] and 152 nM on Cannabinoid receptor 2 [2]. Further, the Activity at Cannabinoid receptor 1 [3] and on Cannabinoid receptor 2 [4] was more than 70% in each case. The Ratio Ki in [5] came out at 27.7.

Turning to `CC1(C)C2CC[C@@](C)(C2)C1NC(=O)c1nn(-c2ccc(Cl)cc2Cl)c2c1ccc1cc(C3CC3)ccc12` (stereo partly drawn), the Ki on Cannabinoid receptor 1 [1] and on Cannabinoid receptor 2 [2] was more than 40000 nM in each case. Further, the Activity on Cannabinoid receptor 1 [3] and on Cannabinoid receptor 2 [4] was more than 70% throughout.

`O=C(NN1CCCCC1)c1nn(-c2ccc(Cl)cc2Cl)c2c1CCc1cc(C3CC3)ccc1-2`: the values for the Ki at Cannabinoid receptor 1 [1] and at Cannabinoid receptor 2 [2] were more than 40000 nM and 143 nM, respectively. Besides, the Activity on Cannabinoid receptor 1 [3] and on Cannabinoid receptor 2 [4] was more than 70% each time. Further, the Ratio Ki in [5] was more than 280.

As for `O=C(c1nn(-c2ccc(Cl)cc2Cl)c2c1ccc1cc(C3CC3)ccc12)N1CCCCC1`, the Ki at Cannabinoid receptor 1 [1] and at Cannabinoid receptor 2 [2] was more than 40000 nM in each case. Moreover, the Activity at Cannabinoid receptor 1 [3] and at Cannabinoid receptor 2 [4] was more than 70% in each case.

As for `CC1(C)C2CC[C@@](C)(C2)C1NC(=O)c1nn(-c2ccc(Cl)cc2Cl)c2c1CCc1cc(C3CC3)ccc1-2` (stereo partly drawn), the Ki on Cannabinoid receptor 1 [1] is more than 40000 nM; on Cannabinoid receptor 2 [2] it was 5520 nM. Besides, the Activity on Cannabinoid receptor 1 [3] and on Cannabinoid receptor 2 [4] was more than 70% each time. Also, in experiment [5], the Ratio Ki was more than 7.25.

For `O=C(NN1CCCCC1)c1nn(-c2ccc(Cl)cc2Cl)c2c1ccc1cc(C3CC3)ccc12`, the Ki is more than 40000 nM on Cannabinoid receptor 1 [1] and 825 nM at Cannabinoid receptor 2 [2]. In addition, the Activity on Cannabinoid receptor 1 [3] and at Cannabinoid receptor 2 [4] was more than 70% in each case. Further, the Ratio Ki in experiment [5] is more than 48.5.

`O=C(NC12CC3CC(CC(C3)C1)C2)c1nn(-c2ccc(Cl)cc2Cl)c2c1Cc1cc(C3CC3)ccc1-2`: the Ki was more than 10000 nM on Cannabinoid receptor 1 [1] and 4 nM at Cannabinoid receptor 2 [2]. For the same compound, the Activity on Cannabinoid receptor 1 [3] and at Cannabinoid receptor 2 [4] was more than 70% throughout. The Ratio Ki in experiment [5] is more than 2230. Further, at Cannabinoid receptor 2 [6], the IC50 was 50.7 nM. In addition, the result in [7] and in [8] was inactive. Also, the outcome in [9] was Active.

`O=C(NN1CCCCC1)c1nn(-c2ccc(Cl)cc2Cl)c2c1Cc1cc(C3CCCCC3)ccc1-2`: the inhibitory constant (Ki) was more than 10000 nM at Cannabinoid receptor 1 [1] and 509 nM at Cannabinoid receptor 2 [2]. Moreover, the Activity on Cannabinoid receptor 1 [3] and at Cannabinoid receptor 2 [4] was more than 70% each time. The Ratio Ki in [5] was more than 19.6.

`O=C(NN1CCCC1)c1nn(-c2ccc(Cl)cc2Cl)c2c1Cc1cc(C3CCCCC3)ccc1-2`: the values for the Ki on Cannabinoid receptor 1 [1] and on Cannabinoid receptor 2 [2] were more than 10000 nM and 515 nM, respectively. Also, the Activity at Cannabinoid receptor 1 [3] and at Cannabinoid receptor 2 [4] was more than 70% each time. The Ratio Ki in experiment [5] was more than 19.4.

With `O=C(c1nn(-c2ccc(Cl)cc2Cl)c2c1Cc1cc(C3CC3)ccc1-2)N1CCCCC1`, the values for the Ki at Cannabinoid receptor 1 [1] and at Cannabinoid receptor 2 [2] were more than 10000 nM and 414 nM, respectively. Besides, the Activity at Cannabinoid receptor 1 [3] and on Cannabinoid receptor 2 [4] was more than 70% each time. In addition, in [5], the Ratio Ki was more than 24.2.

`CC1(C)[C@@H]2CC[C@]1(C)[C@H](NC(=O)c1nn(-c3ccc(Cl)cc3Cl)c3c1Cc1cc(C4CC4)ccc1-3)C2`: the Ki was more than 40000 nM on Cannabinoid receptor 1 [1] and 38 nM on Cannabinoid receptor 2 [2]. The Activity on Cannabinoid receptor 1 [3] and on Cannabinoid receptor 2 [4] was more than 70% in each case. The Ratio Ki in experiment [5] was more than 1060. This compound had an IC50 at Cannabinoid receptor 2 [6] of 26.9 nM. Besides, in experiment [7], the result was inactive. For the same compound, the result in experiment [8] and in experiment [9] was Active.

For `O=C(NN1CCCC1)c1nn(-c2ccc(Cl)cc2Cl)c2c1ccc1cc(C3CC3)ccc12`, the Ki at Cannabinoid receptor 1 [1] and at Cannabinoid receptor 2 [2] was more than 40000 nM in each case. The Activity on Cannabinoid receptor 1 [3] and on Cannabinoid receptor 2 [4] was more than 70% in each case.
